Where two headings read alike, the source gives them in different places.
Assays:
[1] = target: T1, HSV-1 ribonucleotide reductase (Human herpesvirus 1, UniProt P08543); test: Inhibition of Herpes Simplex Virus (HSV-1) ribonucleotide reductase; type: biochemical
T1 construct: HSV-1 ribonucleotide reductase (partially purified) was obtained from quiescent BHK-21/C13 cells infected with strain F HSV-1 virus; made in house; host or cells: quiescent BHK-21/C13 cells infected with HSV-1 strain F (virus-encoded enzyme, partially purified)
Text: Inhibition of Herpes Simplex Virus (HSV-1) Ribonucleotide Reductase
• a) Preparation of Enzyme HSV-1 ribonucleotide reductase (partially purified) was obtained from quiescent BHK-21/C13 cells infected with strain F HSV-1 virus at 10 plaque forming units/cell as described by E.A. Cohen et al., J. Gen. Virol., 66, 733 (1985). • b) Assay and Results for Exemplified Peptides By following the procedure described by P. Gaudreau et al., J. Biol, Chem., 262, 12413 (1987), the assay results listed in the following Table I were obtained. The assay result for each exemplified compound of formula 1 is expressed as the concentration of the compound producing 50% of the maximal inhibition (IC50) of enzyme activity. The number of units of the enzyme preparation used in each assay was constant, based on the specific activity of the enzyme preparation. The results are relative to the activity obtained in control experiments without the test compound and represent the mean of four assays that varied less than 10% with each other.

HSV-2 = test: Inhibition of Herpes Simplex Virus (HSV-2) replication in cell culture; type: cell-based
Procedure: Inhibition of Herpes Simplex Virus (HSV-2) Replication in Cell Culture
BHK-21/C13 cells (ATCC CCL 10) are incubated for two days in 150 cm^2 T-flasks (1.5 x 10^6 cells/flask) with alpha-MEM medium (Gibco Canada Inc., Burlington, Ontario, Canada) supplemented with 8% (v/v) fetal bovine serum (FBS, Gibco Canada Inc.). The cells are trypsinized and then transferred to fresh media in a 24 well plate to give 2.5 x 10^5 cells in 750 µL of media per well. The cells are incubated at 37° for a period of 6 h to allow them to adhere to the plate. Thereafter, the cells are washed once with 500 µL of alpha-MEM supplemented with 0.5% (v/v) FBS and then incubated with 750 µL of the same media (low serum) for 3 days. After this period of serum starvation, the low serum medium is removed and the cells are incubated in 500 µL of BBMT for 2 to 3 hours. {BBMT medium is described by P. Brazeau et al., Proc. Natl. Acad. Sci. USA, 79, 7909 (1982).} Thereafter, the cells are infected with HSV-2 (multiplicity of infection = 0.02 PFU/cell) in 100 µL of BBMT medium. (Note: The HSV-2 used was strain HG-52, see Y. Langelier and G. Buttin, J. Gen. Virol., 57, 21 (1981); the virus was stored at -80°.) Following 1 h of virus adsorption at 37°, the media is removed and the cells are washed with BBMT (3 X 250 µL). The cells in each well are incubated with or without (control) appropriate concentrations of the test agent dissolved in 200 µL of BBMT medium. After 29 h of incubation at 37°, the infected cells are harvested by first freezing the plate at -80°, followed by thawing. The cells in each well are scraped off the surface of the well with the help of the melting ice fragments. After complete thawing, the cell suspensions are collected and each well is rinsed with 150 µL of BBMT medium. The viral sample (suspension plus washing) is sonicated gently for 4 min at 4°. Cell debris are removed by centrifugation (1000 times gravity for 10 minutes at 4°). The supernatant is collected and stored at -80° until determination of viral titer.
Viral titration was performed by a modification of the colorimetric assay method of M. Langlois et al., Journal of Biological Standardization, 14, 201 (1986).
More specifically, in a similar manner as described above, BHK-21/C13 cells are trypsinized and transferred to fresh media in a 96 well microtiter plate to give 20,000 cells in 100 µL of media per well. The cells in the prepared plate are incubated at 37° for 2 h. During that time, the viral sample is thawed and sonicated gently for 15 seconds, and log dilutions of the sample are prepared (1/5 sequential: 50 µL of the sample plus 200 µL of BBMT medium, sequential dilutions being done with a multichannel pipette.
On completion of the above 2 hour incubation of the BHK-21/C13 cells, the media is replaced with alpha-MEM medium supplemented with 3% (v/v) FBS. The cells are now ready to be infected with the various sample dilutions of virus. Aliquots (50 µL) of the various dilutions are transferred into the appropriate wells of the plate. The resulting infected cells are incubated for 2 days at 37°. Then 50 µL of a 0.15% (v/v) solution of neutral red dye in Hank's Balanced Salt Solution (pH 7.3, Gibco Canada Inc.) is added to each well. The prepared plate is incubated for 45 min at 37°. Medium from each well is then aspirated and the cells are washed once with 200 µL of Hank's Balanced Salt Solution. […]

[2] = Human alphaherpesvirus 2, Table IV, cell culture assay of example 11, read-out: EC50
[3] = Human alphaherpesvirus 2, Table V, cell culture assay of example 11
[4] = Table I, partially purified enzyme from BHK-21/C13 cells infected with strain F HSV-1, mean of four assays
[5] = Human alphaherpesvirus 2, BHK21 (C13), 29 h, Table II, BHK-21/C13 cells, HSV-2 strain HG-52, 0.02 PFU/cell, 29 h incubation, read-out: EC50

T1 sequence (P08543 whole entry): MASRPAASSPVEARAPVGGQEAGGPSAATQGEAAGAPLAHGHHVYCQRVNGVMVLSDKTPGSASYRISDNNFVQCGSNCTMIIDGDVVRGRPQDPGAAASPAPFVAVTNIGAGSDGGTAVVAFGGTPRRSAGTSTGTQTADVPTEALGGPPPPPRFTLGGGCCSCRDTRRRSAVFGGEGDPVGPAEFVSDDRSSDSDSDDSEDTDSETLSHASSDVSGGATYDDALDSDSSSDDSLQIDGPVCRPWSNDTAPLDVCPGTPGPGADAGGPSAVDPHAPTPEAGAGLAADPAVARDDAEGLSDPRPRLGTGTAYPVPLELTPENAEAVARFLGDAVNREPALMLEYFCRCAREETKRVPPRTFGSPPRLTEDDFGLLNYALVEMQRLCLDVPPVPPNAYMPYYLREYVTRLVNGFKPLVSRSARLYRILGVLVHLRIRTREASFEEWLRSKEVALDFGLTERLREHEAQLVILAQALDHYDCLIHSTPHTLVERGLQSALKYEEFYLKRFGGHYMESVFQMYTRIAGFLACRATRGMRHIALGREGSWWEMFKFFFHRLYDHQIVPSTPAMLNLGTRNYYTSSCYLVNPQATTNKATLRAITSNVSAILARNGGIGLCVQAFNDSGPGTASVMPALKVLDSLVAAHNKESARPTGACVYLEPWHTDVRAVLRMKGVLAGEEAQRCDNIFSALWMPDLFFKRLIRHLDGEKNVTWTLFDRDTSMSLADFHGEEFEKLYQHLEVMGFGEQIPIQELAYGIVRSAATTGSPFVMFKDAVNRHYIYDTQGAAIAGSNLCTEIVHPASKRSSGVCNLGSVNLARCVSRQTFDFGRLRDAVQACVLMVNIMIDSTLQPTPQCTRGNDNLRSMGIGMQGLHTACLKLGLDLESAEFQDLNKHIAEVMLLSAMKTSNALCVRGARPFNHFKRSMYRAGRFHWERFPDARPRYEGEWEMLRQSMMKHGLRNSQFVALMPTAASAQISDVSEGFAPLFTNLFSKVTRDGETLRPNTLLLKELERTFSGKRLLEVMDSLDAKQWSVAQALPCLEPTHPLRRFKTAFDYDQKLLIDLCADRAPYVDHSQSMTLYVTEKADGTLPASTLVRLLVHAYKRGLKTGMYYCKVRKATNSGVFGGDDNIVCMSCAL

| SMILES | IC50 ([1]; Table IV, assay of example 10) | EC50 (HSV-2; [2]) | IC50 ([1]; Table V, assay of example 10) | also measured |
| --- | --- | --- | --- | --- |
| CCCC(CCC)NC(=O)NC(C(=O)CC(CC(=O)C(C)(C)C)C(=O)NC(C(=O)NCC(C)(CC)CC)C1(C(=O)O)CCCC1)C(C)(C)C [Pr2CHNHC(O) / NHCH2CEt2Me, Pr2CHNHC(O)-Tbg-CH2-(R)-CH(CH2C(O)CMe3)C(O)-Asp(cyPn)-NHCH2CEt2Me] | 0.34 µM | 18 µM |  |  |
| CCCC(CCC)NC(=O)NC(C(=O)CC(CC(=O)C(C)(C)C)C(=O)NC(C(=O)NCC(CC)(CC)CC)C1(C(=O)O)CCCC1)C(C)(C)C [Pr2CHNHC(O) / NHCH2CEt3, Pr2CHNHC(O)-Tbg-CH2-(R)-CH(CH2C(O)CMe3)C(O)-Asp(cyPn)-NHCH2CEt3] | 0.52 µM | 19 µM |  |  |
| CCCC(CCC)NC(=O)NC(C(=O)CC(CC(=O)C(C)(C)C)C(=O)NC(C(=O)NCCC(C)(C)C)C1(C(=O)O)CCCC1)C(C)(C)C [Pr2CHNHC(O) / NHCH2CH2CMe3, Pr2CHNHC(O)-Tbg-CH2-(R)-CH(CH2C(O)CMe3)C(O)-Asp(cyPn)-NHCH2CH2CMe3] | 0.58 µM | 72 µM |  |  |
| CCCC(CCC)NC(=O)NC(C(=O)CC(CC(=O)C(C)(C)C)C(=O)NC(C(=O)NCC(C)(C)CC)C1(C(=O)O)CCCC1)C(C)(C)C [Pr2CHNHC(O) / NHCH2CMe2Et, Pr2CHNHC(O)-Tbg-CH2-(R)-CH(CH2C(O)CMe3)C(O)-Asp(cyPn)-NHCH2CMe2Et] | 0.24 µM | 16 µM |  |  |
| CCCC(CCC)NC(=O)NC(C(=O)CC(CC(=O)C(C)(C)C)C(=O)NC(C(=O)NCC(C)(C)CCC)C1(C(=O)O)CCCC1)C(C)(C)C [Pr2CHNHC(O) / NHCH2CMe2Pr, Pr2CHNHC(O)-Tbg-CH2-(R)-CH(CH2C(O)CMe3)C(O)-Asp(cyPn)-NHCH2CMe2Pr] | 0.42 µM | 35 µM |  |  |
| CCCC(CCC)NC(=O)NC(C(=O)CC(CC(=O)C(C)(C)C)C(=O)NC(C(=O)NC(C)(C)C(C)(C)C)C1(C(=O)O)CCCC1)C(C)(C)C [Pr2CHNHC(O) / NHCMe2CMe3, Pr2CHNHC(O)-Tbg-CH2-(R)-CH(CH2C(O)CMe3)C(O)-Asp(cyPn)-NHCMe2CMe3] | 0.51 µM | 38 µM |  |  |
| CCCC(CCC)NC(=O)NC(C(=O)CC(CC(=O)C(C)(C)C)C(=O)NC(C(=O)NN(CC)C(C)(C)C)C1(C(=O)O)CCCC1)C(C)(C)C [Pr2CHNHC(O) / NHN(Et)CMe3, Pr2CHNHC(O)-Tbg-CH2-(R)-CH(CH2C(O)CMe3)C(O)-Asp(cyPn)-NHN(Et)CMe3] | 0.22 µM | 80 µM |  |  |
| CCCC(CCC)NC(=O)NC(C(=O)CC(CC(=O)C(C)(C)C)C(=O)NC(C(=O)NNC(C)(C)C)C1(C(=O)O)CCCC1)C(C)(C)C [Pr2CHNHC(O) / NHNHCMe3, Pr2CHNHC(O)-Tbg-CH2-(R)-CH(CH2C(O)CMe3)C(O)-Asp(cyPn)-NHNHCMe3] | 0.22 µM | 84 µM |  |  |
| CCCC(CCC)NC(=O)NC(C(=O)CC(CC(=O)C(C)(C)C)C(=O)NC(C(=O)NC(C)C(C)(C)C)C1(C(=O)O)CCCC1)C(C)(C)CC [Pr2CHNHC(O)-NH-(S)-CH(CMe2Et)-C(O)-CH2-(R)-CH(CH2C(O)CMe3)C(O)-Asp-(cyPn)-NH-(R)-CH(Me)CMe3] |  |  | 0.25 µM | EC50 (HSV-2; [3]): 13 µM |
| CCCC(CCC)NC(=O)NC(C(=O)CC(CC(=O)C(C)C)C(=O)NC(C(=O)NCC(C)(C)C)C1(C(=O)O)CCCC1)C(C)(C)C [Pr2CHNHC(O)-Tbg-CH2-(R)-CH(CH2-C(O)CHMe2)C(O)-Asp(cyPn)-NHCH2-CMe3] |  |  | 0.36 µM | EC50 (HSV-2; [3]): 39 µM |
| CCCC(CCC)NC(=O)NC(C(=O)CC(CC(=O)C(C)(C)CC)C(=O)NC(C(=O)NCC(C)(C)C)C1(C(=O)O)CCCC1)C(C)(C)C [Pr2CHNHC(O)-Tbg-CH2-(R)-CH(CH2-C(O)CMe2Et)C(O)-Asp(cyPn)-NHCH2-CMe3] |  |  | 0.21 µM | EC50 (HSV-2; [3]): 33 µM |
| CCCC(CCC)NC(=O)NC(C(=O)CC(CC(=O)C(C)(C)C)C(=O)NC(C(=O)NCC(C)(C)C)C(CCC)C(=O)O)C(C)(C)C [Pr2CHNHC(O)-Tbg-CH2-(R)-CH(CH2-C(O)CMe3)C(O)-Asp{(R)-Pr}-NHCH2CMe3] |  |  | 0.25 µM | EC50 (HSV-2; [3]): 46 µM |
| C=CCC(C(=O)O)C(NC(=O)C(CC(=O)C(NC(=O)NC(CCC)CCC)C(C)(C)C)CC(=O)C(C)(C)C)C(=O)NCC(C)(C)C [Pr2CHNHC(O)-Tbg-CH2-(R)-CH(CH2-C(O)CMe3)C(O)-Asp{(R)-allyl}-NHCH2CMe3] |  |  | 0.3 µM | EC50 (HSV-2; [3]): 62 µM |
| CCCC(CCC)NC(=O)NC(C(=O)CC(CC(=O)C(C)(C)C)C(=O)NC(C(=O)NCC(C)(C)C)C1(C(=O)O)CCCC1)C(C)(C)C [Pr2CHNHC(O)-Tbg-CH2-(R)-CH(CH2C(O)-CMe3)C(O)-Asp(cyPn)-NHCH2CMe3] |  |  |  | IC50 [1, 4]: 0.08 µM; EC50 (HSV-2; [5]): 24 µM |
| CCCC(CCC)NC(=O)NC(C(=O)CC(CC(=O)C(C)(C)C)C(=O)NC(C(=O)NC(CO)CC(C)(C)C)C1(C(=O)O)CCCC1)C(C)(C)C [Pr2CHNHC(O)-Tbg-CH2-(R)-CH(CH2C(O)-CMe3)C(O)-Asp(cyPn)-γMeLeucinol] |  |  |  | IC50 [1, 4]: 0.2 µM; EC50 (HSV-2; [5]): 30 µM |
| CCCC(CCC)NC(=O)NC(C(=O)CC(CC(=O)C(C)(C)C)C(=O)NC(C(=O)NC1CCCCC1(C)C)C1(C(=O)O)CCCC1)C(C)(C)C [Pr2CHNHC(O)-Tbg-CH2-(R)-CH(CH2C(O)CMe3)C(O)-Asp(cyPn)-NH-(2,2-dimethyl-cyclohexyl)] | 0.4 µM | 24 µM |  |  |
| CCCC(CCC)NC(=O)NC(C(=O)CC(CC(=O)C(C)(C)C)C(=O)NC(C(=O)NC1CCCC1(C)C)C1(C(=O)O)CCCC1)C(C)(C)C [Pr2CHNHC(O)-Tbg-CH2-(R)-CH(CH2C(O)CMe3)C(O)-Asp(cyPn)-NH-(2,2-dimethyl-cyclopentyl)] | 0.38 µM | 31 µM |  |  |
| CCCC(CCC)NC(=O)NC(C(=O)CC(CC(=O)C(C)(C)C)C(=O)NC(C(=O)NC(C)C(C)(C)CC)C1(C(=O)O)CCCC1)C(C)(C)C [Pr2CHNHC(O)-Tbg-CH2-(R)-CH(CH2C(O)CMe3)C(O)-Asp(cyPn)-NH-(R)-CH(Me)C(Me)2Et] | 0.5 µM |  |  | EC50 (HSV-2; Human alphaherpesvirus 2, Table IV, cell culture assay of example 11): 21 µM |
| CCCC(CCC)NC(=O)NC(C(=O)CC(CC(=O)C(C)(C)C)C(=O)NC(C(=O)NC1CCCCC1C)C1(C(=O)O)CCCC1)C(C)(C)C [Pr2CHNHC(O)-Tbg-CH2-(R)-CH(CH2C(O)CMe3)C(O)-Asp(cyPn)-cis-NH-(2-methyl-cyclohexyl)] | 0.67 µM | 75 µM |  |  |
| CCCC(CCC)NC(=O)NC(C(=O)CC(CC(=O)C1(C)CCCC1)C(=O)NC(C(=O)NCC(C)(C)C)C1(C(=O)O)CCCC1)C(C)(C)C [Pr2CHNHC(O)-Tbg-CH2-(R)-CH{CH2-C(O)-(1-methylcyclopentyL)}C(O)-Asp(cyPn)-NHCH2CMe3] |  |  | 0.24 µM | EC50 (HSV-2; Human alphaherpesvirus 2): 35 µM |
| CCCC(CCC)NC(=O)NC(C(=O)CC(CC(=O)C1CCC1)C(=O)NC(C(=O)NCC(C)(C)C)C1(C(=O)O)CCCC1)C(C)(C)C [Pr2CHNHC(O)-Tbg-CH2-(R)-CH{CH2-C(O)-(cyclobutyl)}C(O)-Asp(cyPn)-NHCH2CMe3] |  |  | 0.31 µM | EC50 (HSV-2; Human alphaherpesvirus 2): 46 µM |

— patent EP0560267B1, “Isosteric antiherpes peptide derivatives” (BOEHRINGER INGELHEIM (CANADA) LTD., priority 1992, dated 1993)
